What was measured:
[1] = MTT viability assay after treatment with Fluc mRNA/amino lipidated peptoid formulations; type: cell-based; settings: human, HeLa cells
Experimental: Cellular viability was measured following treatment with Fluc mRNA/amino lipidated peptoid formulations by a traditional MTT viability assay. […] In this assay, cells were first treated with peptoid formulations at a final mRNA concentration of 100 ng/well for 8 hours. Cells were then left to grow for 48 hours, after which time they were exposed to 1.5 mg/mL 3-(4,5-dimethylthiazol-2-yl)-2,5-diphenyltetrazolium bromide (MTT) for 2 hours, then lysed using a solubilizing solution of 10% Triton-X 100 in acidic isopropanol (0.1N HCl). The signal corresponding to reduced formazan was normalized to untreated cells to provide a relative viability of each treated condition. […] In general, nearly all conditions maintained at least 80% viability with the only exceptions being formulations of compound 5, 34, and 35.

[2] = mRNA encapsulation by fluorescence of Qubit RNA HS dye before and after lysis with Triton X-100; type: physicochemical; settings: percentage of mRNA encapsulation; Fluc mRNA/peptoid formulation, 5:1 mass ratio
Experimental: The exemplary amino lipidated cationic peptoids described in Example 2 were combined with firefly luciferase (Fluc) mRNA to form nanoparticle compositions to be evaluated for therapeutic and/or prophylactic purposes in vitro or in vivo. The formulations were prepared according to the protocol of Example 3 and mixed by simple pipetting. The mRNA/peptoid formulation at a 5:1 mass ratio of peptoid:cargo were evaluated by dynamic light scattering (DLS) in order to determine the volume average particle size/diameter (nm) of the mRNA/peptoid complex and the size polydispersity index (PDI) within the formulation. The percentage of mRNA encapsulation for each formulation of the exemplary compounds were determined by fluorescence of the Qubit RNA HS (Invitrogen) dye before and after lysis of particles by Triton X-100.

HeLa cells [3] = experiment: In vitro expression of firefly luciferase (Fluc) after treatment with Fluc mRNA/amino lipidated peptoid formulations, no PEG or 2% DMG-PEG2000; type: cell-based
Experimental: The efficacy of mRNA/amino lipidated peptoid formulations was evaluated in vitro based on their ability to deliver the firefly luciferase (Fluc) reporter gene to cultured cells. Amino lipidated peptoids were combined with Fluc mRNA at a 5:1 w/w ratio, and the resulting particles were added to cultured HeLa cells at a dose of 100 ng/well (in 100 μL total volume). The resulting luciferase expression (RLU) was measured by a luminescence plate reader after 6 hours and 24 hours of treatment. […] In addition to evaluating nanoparticle complexes formed between mRNA cargos and amino lipidated peptoids alone, multicomponent formulations containing a small amount of PEG-lipid DMG-PEG2000 were also tested for in vitro Fluc mRNA delivery. In these formulations, DMG-PEG2000 was pre-mixed with candidate peptoid at an overall 2% incorporation (w/w), while maintaining the same 5:1 mass ratio of peptoid:mRNA used previously.

HeLa cells [4] = experiment: In vitro Fluc expression with variable peptoid:mRNA mass ratio, 2% DMG-PEG2000; type: cell-based; settings: 24 h; for Observed Luciferase Expression (RLU) for Given Formulation Mass Ratio 2:1: 2% (w/w) DMG-PEG2000, peptoid:mRNA 2:1; for Observed Luciferase Expression (RLU) for Given Formulation Mass Ratio 3.5:1: 2% (w/w) DMG-PEG2000, peptoid:mRNA 3.5:1; for Observed Luciferase Expression (RLU) for Given Formulation Mass Ratio 5:1: 2% (w/w) DMG-PEG2000, peptoid:mRNA 5:1; for Observed Luciferase Expression (RLU) for Given Formulation Mass Ratio 7.5:1: 2% (w/w) DMG-PEG2000, peptoid:mRNA 7.5:1
Experimental: The charge ratio dependence of amino lipidated peptoid delivery vehicles was evaluated by formulating particles between Fluc mRNA and delivery vehicles at varying mass ratios. Formulations were varied between 2:1 and 7.5:1 peptoid:mRNA (w/w) ratios (2:1, 3.5:1, 5:1 and 7.5:1). In addition, the role of DMG-PEG2000 was also explored with the mass ratios, either by excluding DMG-PEG2000 or incorporating DMG-PEG2000 at 2% (w/w) relative to amino lipidated peptoid. Fluc expression from these formulations was measured in HeLa cells following treatment for 24 hours. […] FIGS. 6B and 6C show plots of the average bioluminescence (RLU) for HeLa cells treated with the formulations of exemplary amino lipidated cationic peptoid compounds 1-36, all formulated with 2% w/w DMG-PEG2000.

[5] = no PEG, peptoid:Fluc mRNA 5:1 w/w, 100 ng/well, 6 h of treatment
[6] = no PEG, peptoid:Fluc mRNA 5:1 w/w, 100 ng/well, 24 h of treatment
[7] = with 2% (w/w) DMG-PEG2000, peptoid:mRNA 5:1, 6 h after treatment
[8] = with 2% (w/w) DMG-PEG2000, peptoid:mRNA 5:1, 24 h after treatment

Row | Compound | viability at 8 h, 500 ng/well ([1]; Relative Viability (%) 2% PEG) | viability at 8 h, 500 ng/well ([1]; Relative Viability (%) No PEG) | other results
1 | CCCCCCCCCCN(CC(N)=O)C(=O)CN(CCCCCCCCCC)C(=O)CN(CCCCCCCCCC)C(=O)CN(CCCCCCCCCC)C(=O)CN(CCc1ccccc1)C(=O)CN(CCc1ccccc1)C(=O)CN(CCN)C(=O)CN(CCc1ccccc1)C(=O)CN(CCc1ccccc1)C(=O)CN(CCN)C(=O)CN(CCc1ccccc1)C(=O)CN(CCc1ccccc1)C(=O)CNCCN [Compound 8] | 97.3% | 92% | 
2 | CCCCCCCCCCN(CC(N)=O)C(=O)CN(CCCCCCCCCC)C(=O)CN(CCCCCCCCCC)C(=O)CN(CCCCCCCCCC)C(=O)CN(CCc1ccccc1)C(=O)CN(CCc1ccccc1)C(=O)CN(CC1CCCN1)C(=O)CN(CCc1ccccc1)C(=O)CN(CCc1ccccc1)C(=O)CN(CC1CCCN1)C(=O)CN(CCc1ccccc1)C(=O)CN(CCc1ccccc1)C(=O)CNCC1CCCN1 (stereo not shown) [Compound 34] | 106% | 67.6% | viability at 8 h, 500 ng/well ([1]; viability): < 80%
3 | CCCCCCCCCCN(CC(N)=O)C(=O)CN(CCCCCCCCCC)C(=O)CN(CCc1ccccc1)C(=O)CN(CCc1ccccc1)C(=O)CN(CCN)C(=O)CN(CCc1ccccc1)C(=O)CN(CCc1ccccc1)C(=O)CN(CCN)C(=O)CN(CCc1ccccc1)C(=O)CN(CCc1ccccc1)C(=O)CN(CCN)C(=O)CN(CCc1ccccc1)C(=O)CN(CCc1ccccc1)C(=O)CN(CCN)C(=O)CN(CCc1ccccc1)C(=O)CN(CCc1ccccc1)C(=O)CNCCN [Compound 12] | 104% | 98.5% | 
4 | CCCCCCCCCCN(CC(N)=O)C(=O)CN(CCCCCCCCCC)C(=O)CN(CCCCCCCCCC)C(=O)CN(CCCCCCCCCC)C(=O)CN(CCCCCCCCCC)C(=O)CN(CCc1ccccc1)C(=O)CN(CCc1ccccc1)C(=O)CN(CCN)C(=O)CN(CCc1ccccc1)C(=O)CN(CCc1ccccc1)C(=O)CN(CCN)C(=O)CN(CCc1ccccc1)C(=O)CN(CCc1ccccc1)C(=O)CNCCN [Compound 19] | 94.8% | 87.1% | 
5 | CCCCCCCCCCN(CC(N)=O)C(=O)CN(CCCCCCCCCC)C(=O)CN(CCCCCCCCCC)C(=O)CN(CCCCCCCCCC)C(=O)CN(CCCCCCCCCC)C(=O)CN(CCCCCCCCCC)C(=O)CN(CCCCCCCCCC)C(=O)CN(CCc1ccccc1)C(=O)CN(CCc1ccccc1)C(=O)CN(CCN)C(=O)CN(CCc1ccccc1)C(=O)CN(CCc1ccccc1)C(=O)CN(CCN)C(=O)CN(CCc1ccccc1)C(=O)CN(CCc1ccccc1)C(=O)CNCCN [Compound 23] | 118% | 108% | % Encapsulation [2]: 3.9%; Luciferase Expression (RLU) 6 h (HeLa cells [3]; [5]): 5.60E+01 RLU; Luciferase Expression (RLU) 24 h (HeLa cells [3]; [6]): 9.47E+01 RLU; Luciferase Expression (RLU) 6 h (HeLa cells [3]; [7]): 2.53E+01 RLU; Luciferase Expression (RLU) 24 h (HeLa cells [3]; [8]): 2.13E+01 RLU; Observed Luciferase Expression (RLU) for Given Formulation Mass Ratio 2:1 (HeLa cells [4]): 5.47E+01 RLU; Observed Luciferase Expression (RLU) for Given Formulation Mass Ratio 3.5:1 (HeLa cells [4]): 1.42E+02 RLU; Observed Luciferase Expression (RLU) for Given Formulation Mass Ratio 5:1 (HeLa cells [4]): 2.07E+02 RLU; Observed Luciferase Expression (RLU) for Given Formulation Mass Ratio 7.5:1 (HeLa cells [4]): 1.55E+02 RLU
6 | CCCCCCCCCCN(CC(=O)N(CC(=O)N(CCCCCCCCCC)CC(=O)N(CC(N)=O)CC(CC)CCCC)CC(CC)CCCC)C(=O)CN(CCc1ccccc1)C(=O)CN(CCc1ccccc1)C(=O)CN(CCN)C(=O)CN(CCc1ccccc1)C(=O)CN(CCc1ccccc1)C(=O)CN(CCN)C(=O)CN(CCc1ccccc1)C(=O)CN(CCc1ccccc1)C(=O)CNCCN (stereo not shown) [Compound 24] | 112% | 92% | 
7 | CCCCCCCCCCN(CC(N)=O)C(=O)CN(CCCCCCCCCC)C(=O)CN(CCCCCCCCCC)C(=O)CN(CCCCCCCCCC)C(=O)CN(CCc1ccccc1)C(=O)CN(CCc1ccccc1)C(=O)CN(CCCN)C(=O)CN(CCc1ccccc1)C(=O)CN(CCc1ccccc1)C(=O)CN(CCCN)C(=O)CN(CCc1ccccc1)C(=O)CN(CCc1ccccc1)C(=O)CN(CCCN)C(=O)CN(CCc1ccccc1)C(=O)CN(CCc1ccccc1)C(=O)CNCCCN [Compound 29] | 94% | 85.9% | 
8 | CCCCCCCCCCN(CC(N)=O)C(=O)CN(CCCCCCCCCC)C(=O)CN(CCCCCCCCCC)C(=O)CN(CCCCCCCCCC)C(=O)CN(CCc1ccccc1)C(=O)CN(CCc1ccccc1)C(=O)CN(CCNC)C(=O)CN(CCc1ccccc1)C(=O)CN(CCc1ccccc1)C(=O)CN(CCNC)C(=O)CN(CCc1ccccc1)C(=O)CN(CCc1ccccc1)C(=O)CN(CCNC)C(=O)CN(CCc1ccccc1)C(=O)CN(CCc1ccccc1)C(=O)CNCCNC [Compound 26] | 91.9% | 98.8% | % Encapsulation [2]: 35.7%; Luciferase Expression (RLU) 6 h (HeLa cells [3]; [5]): 5.00E+00 RLU; Luciferase Expression (RLU) 24 h (HeLa cells [3]; [6]): 1.07E+01 RLU; Luciferase Expression (RLU) 6 h (HeLa cells [3]; [7]): 5.85E+02 RLU; Luciferase Expression (RLU) 24 h (HeLa cells [3]; [8]): 6.45E+02 RLU; Observed Luciferase Expression (RLU) for Given Formulation Mass Ratio 2:1 (HeLa cells [4]): 4.91E+02 RLU; Observed Luciferase Expression (RLU) for Given Formulation Mass Ratio 3.5:1 (HeLa cells [4]): 3.93E+03 RLU; Observed Luciferase Expression (RLU) for Given Formulation Mass Ratio 5:1 (HeLa cells [4]): 6.06E+03 RLU; Observed Luciferase Expression (RLU) for Given Formulation Mass Ratio 7.5:1 (HeLa cells [4]): 3.19E+03 RLU
9 | CCCCCCCCCCN(CC(N)=O)C(=O)CN(CCCCCCCCCC)C(=O)CN(CCCCCCCCCC)C(=O)CN(CCCCCCCCCC)C(=O)CN(CCCCCCCCCC)C(=O)CN(CCc1ccccc1)C(=O)CN(CCc1ccccc1)C(=O)CN(CCN)C(=O)CN(CCc1ccccc1)C(=O)CN(CCc1ccccc1)C(=O)CN(CCN)C(=O)CN(CCc1ccccc1)C(=O)CN(CCc1ccccc1)C(=O)CN(CCN)C(=O)CN(CCc1ccccc1)C(=O)CN(CCc1ccccc1)C(=O)CNCCN [Compound 21] | 109% | 91.3% | 
10 | CCCCCCCCCCN(CC(N)=O)C(=O)CN(CCCCCCCCCC)C(=O)CN(CCCCCCCCCC)C(=O)CN(CCCCCCCCCC)C(=O)CN(CCc1ccccc1)C(=O)CN(CCc1ccccc1)C(=O)CN(CC1CCCN1)C(=O)CN(CCc1ccccc1)C(=O)CN(CCc1ccccc1)C(=O)CN(CC1CCCN1)C(=O)CN(CCc1ccccc1)C(=O)CN(CCc1ccccc1)C(=O)CN(CC1CCCN1)C(=O)CN(CCc1ccccc1)C(=O)CN(CCc1ccccc1)C(=O)CNCC1CCCN1 (stereo not shown) [Compound 35] | 105% | 74.8% | viability at 8 h, 500 ng/well ([1]; viability): < 80%

— US20220323594A1, “LIPIDATED CATIONIC PEPTIDE-PEG COMPOSITIONS FOR NUCLEIC ACID DELIVERY” (NUTCRACKER THERAPEUTICS, INC., priority 2019, published 2022)
